System: A375 multi-cell spheroids with HUVEC/MSC, viability
Test: Anticancer human tumor A375 cell line growth inhibition [GQUAD];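 further: spheroids exposed to compounds for seven days before readout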
Conditions: for IC50: curve of first compound; for viability, T/C: stronger effect = lower value
Procedure, shortened: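 Viability of tumor cells grown as complex spheroids with endothelial and stromal cells, exposed to drug combinations. Top concentration at or near clinical Cmax (else 10 microM), diluted in half-log increments.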

C#Cc1c(F)ccc2cc(O)cc(-c3ncc4c(N5CC6CCC(C5)N6)nc(OCC56CCCN5CC(F)C6)nc4c3F)c12 (configuration not stated) + CN(C)c1ccc(Nc2c3ccc(NC(=O)CCN4CCCC4)cc3nc3cc(NC(=O)CCN4CCCC4)ccc23)cc1
IC50 (second compound 0.0316 µM): > 10 µM
IC50 (second compound 0.1 µM): > 10 µM
IC50 (second compound 0.316 µM): > 10 µM
IC50 (second compound 1 µM): > 10 µM
IC50 (second compound 3.16 µM): > 10 µM
IC50 (second compound 10 µM): > 10 µM
viability, T/C (second compound 0.0316 µM, first compound 0.0316 µM): 111%
viability, T/C (second compound 0.0316 µM, first compound 0.1 µM): 98.5%
viability, T/C (second compound 0.0316 µM, first compound 0.316 µM): 101%
viability, T/C (second compound 0.0316 µM, first compound 1 µM): 108%
viability, T/C (second compound 0.0316 µM, first compound 3.16 µM): 106%
viability, T/C (second compound 0.0316 µM, first compound 10 µM): 112%
viability, T/C (second compound 0.1 µM, first compound 0.0316 µM): 104%
viability, T/C (second compound 0.1 µM, first compound 0.1 µM): 103%
viability, T/C (second compound 0.1 µM, first compound 0.316 µM): 105%
viability, T/C (second compound 0.1 µM, first compound 1 µM): 108%
viability, T/C (second compound 0.1 µM, first compound 3.16 µM): 107%
viability, T/C (second compound 0.1 µM, first compound 10 µM): 107%
viability, T/C (second compound 0.316 µM, first compound 0.0316 µM): 99.5%
viability, T/C (second compound 0.316 µM, first compound 0.1 µM): 98.4%
viability, T/C (second compound 0.316 µM, first compound 0.316 µM): 99.3%
viability, T/C (second compound 0.316 µM, first compound 1 µM): 109%
viability, T/C (second compound 0.316 µM, first compound 3.16 µM): 102%
viability, T/C (second compound 0.316 µM, first compound 10 µM): 98.6%
viability, T/C (second compound 1 µM, first compound 0.0316 µM): 106%
viability, T/C (second compound 1 µM, first compound 0.1 µM): 98%
viability, T/C (second compound 1 µM, first compound 0.316 µM): 99.4%
viability, T/C (second compound 1 µM, first compound 1 µM): 109%
viability, T/C (second compound 1 µM, first compound 3.16 µM): 107%
viability, T/C (second compound 1 µM, first compound 10 µM): 98.1%
viability, T/C (second compound 3.16 µM, first compound 0.0316 µM): 103%
viability, T/C (second compound 3.16 µM, first compound 0.1 µM): 98.7%
viability, T/C (second compound 3.16 µM, first compound 0.316 µM): 104%
viability, T/C (second compound 3.16 µM, first compound 1 µM): 97.2%
viability, T/C (second compound 3.16 µM, first compound 3.16 µM): 102%
viability, T/C (second compound 3.16 µM, first compound 10 µM): 103%
viability, T/C (second compound 10 µM, first compound 0.0316 µM): 96.6%
viability, T/C (second compound 10 µM, first compound 0.1 µM): 102%
viability, T/C (second compound 10 µM, first compound 0.316 µM): 96.2%
viability, T/C (second compound 10 µM, first compound 1 µM): 96.3%
viability, T/C (second compound 10 µM, first compound 3.16 µM): 102%
viability, T/C (second compound 10 µM, first compound 10 µM): 102%

From PubChem BioAssay AID2060485 (Molecular Pharmacology Branch, DTP, NCI, 2025)
